In US20240197726A1, “NOVEL TETRAHYDROISOQUINOLINE ALKALOID COMPOUND CONTAINING MACROCYCLE” (THE UNIVERSITY OF TOKYO, priority 2021, published 2024):
Read-outs that look alike come from different tables or passages of the source.

Experiments:
[1] = test system: MCF-7 breast cancer cells; details: MCF-7 breast cancer cells; comparative value based on the literature; read-out: antitumor activity GI50 value: 50% growth inhibitory concentration; cited from earlier work
[2] = test system: MDA-MB-231 breast cancer cells; details: MDA-MB-231 breast cancer cells; comparative value based on the literature; read-out: antitumor activity GI50 value: 50% growth inhibitory concentration; cited from earlier work
[3] = test system: HT-29 colorectal cancer cells; details: HT-29 colorectal cancer cells; comparative value based on the literature; read-out: antitumor activity GI50 value: 50% growth inhibitory concentration; cited from earlier work
[4] = test system: HCT-116 colorectal cancer cells; details: HCT-116 colorectal cancer cells; comparative value based on the literature; read-out: antitumor activity GI50 value: 50% growth inhibitory concentration; cited from earlier work
[5] = test system: NCI-H23 lung cancer cells; details: NCl-H23 lung cancer cells; comparative value based on the literature; read-out: antitumor activity GI50 value: 50% growth inhibitory concentration; cited from earlier work
[6] = test system: NCI-H460 lung cancer cells; details: NCl--H460 lung cancer cells; comparative value based on the literature; read-out: antitumor activity GI50 value: 50% growth inhibitory concentration; cited from earlier work
[7] = test system: A549 lung cancer cells; details: A549 lung cancer cells; comparative value based on the literature; read-out: antitumor activity GI50 value: 50% growth inhibitory concentration; cited from earlier work
[8] = test system: HBC-4 breast cancer cells; experiment: antitumor activity, sulforhodamine B cell growth assay, HBC-4; assay type: cell-based; details: HBC-4 breast cancer cells; read-out: antitumor activity GI50 value: 50% growth inhibitory concentration
Protocol: (§1) The THIQ compound containing a macrocyclic structure of the present invention was administered to various cancer cell lines, and the antitumor activity (Go value) was observed. Specifically, verification was performed according to the literature (Yamori, T.; Matsunaga, A.; Sato, S.; Yamazaki, K.; Komi, A.; Ishizu, K. et al. Cancer Res. 1999, 59, 4042) by the following procedure.
(§2) Cells were plated at an appropriate density in a 96-well plate in RPMI 1640 together with 5% fetal bovine serum, and adhered overnight. The cells were exposed to a drug for 48 hours. Then, according to the sulforhodamine B assay described by Skehan et al (Skehan P., Storeng R., Scudiero D., Monks A., McMahon J., Vistica D., Warren J. T., Bokesch H., Kenney S., Boyd M. R. J Natl. Cancer Inst, 1990, 82, 1107-1112), the cell growth rate was measured. The absorbance of the control well (C) and the test well (T) was measured at 525 nm. In addition, the time at which the drug was added was set as time 0, and the absorbance for the test well (T0) was measured. Using these measured values, the cell growth inhibitory effect (% growth=PG) was calculated by the following formula at each concentration of the drug.
(§3) (T<T0): PG=100×[(T−T0)/T]
(§4) The PG values determined above for each cell line were plotted against the concentration (logarithm) on a semi-logarithmic graph, and summarized for each visceral cancer. Concentrations at which the dose-response curve of each cell line crossed the horizontal line of PG=50%, 0%, or −50% were calculated. These concentrations were defined as Log GI50, Log TGI, and Log LC50. Actually, using two data points of the drug concentration before and after crossing each horizontal line, the drug concentration (logarithmic value) at the intersection of the straight line connecting the two points and the horizontal line for each PG was calculated.

[9] = test system: BSY-1 breast cancer cells; experiment: antitumor activity, sulforhodamine B cell growth assay, BSY-1; assay type: cell-based; details: BSY-1 breast cancer cells; read-out: antitumor activity GI50 value: 50% growth inhibitory concentration
Protocol: as §1, §2, §3, §4

[10] = test system: HBC-5 breast cancer cells; experiment: antitumor activity, sulforhodamine B cell growth assay, HBC-5; assay type: cell-based; details: HBC-5 breast cancer cells; read-out: antitumor activity GI50 value: 50% growth inhibitory concentration
Protocol: as §1, §2, §3, §4

[11] = test system: MDA-MB-231 breast cancer cells; experiment: antitumor activity, sulforhodamine B cell growth assay, MDA-MB-231; assay type: cell-based; details: MDA-MB-231 breast cancer cells; read-out: antitumor activity GI50 value: 50% growth inhibitory concentration
Protocol: as §1, §2, §3, §4

[12] = test system: U251 central nervous system cancer cells; experiment: antitumor activity, sulforhodamine B cell growth assay, U251; assay type: cell-based; details: U251 central nervous system cancer cells; read-out: antitumor activity GI50 value: 50% growth inhibitory concentration
Protocol: as §1, §2, §3, §4

[13] = test system: SF-295 central nervous system cancer cells; experiment: antitumor activity, sulforhodamine B cell growth assay, SF-295; assay type: cell-based; details: SF-295 central nervous system cancer cells; read-out: antitumor activity GI50 value: 50% growth inhibitory concentration
Protocol: as §1, §2, §3, §4

[14] = test system: SF-539 central nervous system cancer cells; experiment: antitumor activity, sulforhodamine B cell growth assay, SF-539; assay type: cell-based; details: SF-539 central nervous system cancer cells; read-out: antitumor activity GI50 value: 50% growth inhibitory concentration
Protocol: as §1, §2, §3, §4

[15] = test system: SNB-75 central nervous system cancer cells; experiment: antitumor activity, sulforhodamine B cell growth assay, SNB-75; assay type: cell-based; details: SNB-75 central nervous system cancer cells; read-out: antitumor activity GI50 value: 50% growth inhibitory concentration
Protocol: as §1, §2, §3, §4

[16] = test system: SNB-78 central nervous system cancer cells; experiment: antitumor activity, sulforhodamine B cell growth assay, SNB-78; assay type: cell-based; details: SNB-78 central nervous system cancer cells; read-out: antitumor activity GI50 value: 50% growth inhibitory concentration
Protocol: as §1, §2, §3, §4

[17] = test system: HCC2998 colorectal cancer cells; experiment: antitumor activity, sulforhodamine B cell growth assay, HCC2998; assay type: cell-based; details: HCC2998 colorectal cancer cells; read-out: antitumor activity GI50 value: 50% growth inhibitory concentration
Protocol: as §1, §2, §3, §4

[18] = test system: KM-12 colorectal cancer cells; experiment: antitumor activity, sulforhodamine B cell growth assay, KM-12; assay type: cell-based; details: KM-12 colorectal cancer cells; read-out: antitumor activity GI50 value: 50% growth inhibitory concentration
Protocol: as §1, §2, §3, §4

[19] = test system: HT-29 colorectal cancer cells; experiment: antitumor activity, sulforhodamine B cell growth assay, HT-29; assay type: cell-based; details: HT-29 colorectal cancer cells; read-out: antitumor activity GI50 value: 50% growth inhibitory concentration
Protocol: as §1, §2, §3, §4

[20] = test system: HCT-15 colorectal cancer cells; experiment: antitumor activity, sulforhodamine B cell growth assay, HCT-15; assay type: cell-based; details: HCT-15 colorectal cancer cells; read-out: antitumor activity GI50 value: 50% growth inhibitory concentration
Protocol: as §1, §2, §3, §4

[21] = test system: HCT-116 colorectal cancer cells; experiment: antitumor activity, sulforhodamine B cell growth assay, HCT-116; assay type: cell-based; details: HCT-116 colorectal cancer cells; read-out: antitumor activity GI50 value: 50% growth inhibitory concentration
Protocol: as §1, §2, §3, §4

[22] = test system: NCI-H226 lung cancer cells; experiment: antitumor activity, sulforhodamine B cell growth assay, NCI-H226; assay type: cell-based; details: NCl-H226 lung cancer cells; read-out: antitumor activity GI50 value: 50% growth inhibitory concentration
Protocol: as §1, §2, §3, §4

[23] = test system: NCI-H522 lung cancer cells; experiment: antitumor activity, sulforhodamine B cell growth assay, NCI-H522; assay type: cell-based; details: NCl-H522 lung cancer cells; read-out: antitumor activity GI50 value: 50% growth inhibitory concentration
Protocol: as §1, §2, §3, §4

[24] = test system: NCI-H460 lung cancer cells; experiment: antitumor activity, sulforhodamine B cell growth assay, NCI-H460; assay type: cell-based; details: NCl--H460 lung cancer cells; read-out: antitumor activity GI50 value: 50% growth inhibitory concentration
Protocol: as §1, §2, §3, §4

[25] = test system: A549 lung cancer cells; experiment: antitumor activity, sulforhodamine B cell growth assay, A549; assay type: cell-based; details: A549 lung cancer cells; read-out: antitumor activity GI50 value: 50% growth inhibitory concentration
Protocol: as §1, §2, §3, §4

[26] = test system: DMS273 lung cancer cells; experiment: antitumor activity, sulforhodamine B cell growth assay, DMS273; assay type: cell-based; details: DMS273 lung cancer cells; read-out: antitumor activity GI50 value: 50% growth inhibitory concentration
Protocol: as §1, §2, §3, §4

[27] = test system: DMS114 lung cancer cells; experiment: antitumor activity, sulforhodamine B cell growth assay, DMS114; assay type: cell-based; details: DMS114 lung cancer cells; read-out: antitumor activity GI50 value: 50% growth inhibitory concentration
Protocol: as §1, §2, §3, §4

[28] = test system: LOX-IMVI melanoma cells; experiment: antitumor activity, sulforhodamine B cell growth assay, LOX-IMVI; assay type: cell-based; details: LOX-IMVI melanoma cells; read-out: antitumor activity GI50 value: 50% growth inhibitory concentration
Protocol: as §1, §2, §3, §4

[29] = test system: SK-OV-3 cancer cells; experiment: antitumor activity, sulforhodamine B cell growth assay, SK-OV-3; assay type: cell-based; details: SK-OV-3 cervical cancer cells; read-out: antitumor activity GI50 value: 50% growth inhibitory concentration
Protocol: as §1, §2, §3, §4

[30] = test system: ACHN kidney cancer cells; experiment: antitumor activity, sulforhodamine B cell growth assay, ACHN; assay type: cell-based; details: ACHN kidney cancer cells; read-out: antitumor activity GI50 value: 50% growth inhibitory concentration
Protocol: as §1, §2, §3, §4

[31] = test system: St-4 gastric cancer cells; experiment: antitumor activity, sulforhodamine B cell growth assay, St-4; assay type: cell-based; details: SI-4 gastric cancer cells; read-out: antitumor activity GI50 value: 50% growth inhibitory concentration
Protocol: as §1, §2, §3, §4

[32] = test system: MKN1 gastric cancer cells; experiment: antitumor activity, sulforhodamine B cell growth assay, MKN1; assay type: cell-based; details: MKN1 gastric cancer cells; read-out: antitumor activity GI50 value: 50% growth inhibitory concentration
Protocol: as §1, §2, §3, §4

[33] = test system: MKN-B gastric cancer cells; experiment: antitumor activity, sulforhodamine B cell growth assay, MKN-B; assay type: cell-based; details: MKN-B gastric cancer cells; read-out: antitumor activity GI50 value: 50% growth inhibitory concentration
Protocol: as §1, §2, §3, §4

[34] = test system: MKN-A gastric cancer cells; experiment: antitumor activity, sulforhodamine B cell growth assay, MKN-A; assay type: cell-based; details: MKN-A gastric cancer cells; read-out: antitumor activity GI50 value: 50% growth inhibitory concentration
Protocol: as §1, §2, §3, §4

[35] = test system: MKN45 gastric cancer cells; experiment: antitumor activity, sulforhodamine B cell growth assay, MKN45; assay type: cell-based; details: MKN45 gastric cancer cells; read-out: antitumor activity GI50 value: 50% growth inhibitory concentration
Protocol: as §1, §2, §3, §4

[36] = test system: DU-145 prostate cancer cells; experiment: antitumor activity, sulforhodamine B cell growth assay, DU-145; assay type: cell-based; details: DU-145 prostate cancer cells; read-out: antitumor activity GI50 value: 50% growth inhibitory concentration
Protocol: as §1, §2, §3, §4

Structure (SMILES): COc1c(C)cc2c(c1C)[C@H]1N(C)[C@@](C)(C2)C(C)N2C1(C)[C@@H]1CCC3(CCCC4=C3Cc3ccc(C)cc34)C(=O)OC[C@@]2(C)c2c3c(c(C)c(C)c21)OCO3 (stereo partly drawn) [drawing 163]
- GI50 [1]: 1.7 nM
- GI50 [2]: 3.4 nM
- GI50 [3]: 2.4 nM
- GI50 [4]: 6.4 nM
- GI50 [5]: 5.3 nM
- GI50 [6]: 1.5 nM
- GI50 [7]: 1.3 nM

Structure (SMILES): COc1c(C)cc2c(c1C)[C@H]1N(C)[C@@](C)(C2)C(C)N2C1(C)[C@@H]1CCC3(CCCC4=C3Cc3ccc(C)cc34)C(=O)OC[C@@]2(C)c2c3c(c(C)c(C)c21)OCO3 (stereo partly drawn) [drawing 159]
- GI50 [1]: 1.7 nM
- GI50 [2]: 3.4 nM
- GI50 [3]: 2.4 nM
- GI50 [4]: 6.4 nM
- GI50 [5]: 5.3 nM
- GI50 [6]: 1.5 nM
- GI50 [7]: 1.3 nM

Structure (SMILES): COc1c(C)cc2c(c1C)[C@H]1N(C)[C@@](C)(C2)C(O)N2C1(C)[C@@H]1CCC3(NCCc4cc(C)c(C)cc43)C(=O)OC[C@@]2(C)c2c3c(c(C)c(C)c21)OCO3 (stereo partly drawn)
- GI50 [1]: 2.6 nM
- GI50 [2]: 3.9 nM
- GI50 [3]: 9.8 nM
- GI50 [4]: 4.9 nM
- GI50 [5]: 2.1 nM
- GI50 [6]: 1.8 nM
- GI50 [7]: 10.4 nM

Structure (SMILES): COc1c(C)cc2c(c1C)[C@H]1N(C)[C@@](C)(C2)C(C)N2C1(C)[C@@H]1CCC3(NCCc4cc(C)c(C)cc43)C(=O)OC[C@@]2(C)c2c3c(c(C)c(C)c21)OCO3 (stereo partly drawn)
- GI50 [1]: 2.6 nM
- GI50 [2]: 3.9 nM
- GI50 [3]: 9.8 nM
- GI50 [4]: 4.9 nM
- GI50 [5]: 2.1 nM
- GI50 [6]: 1.8 nM
- GI50 [7]: 10.4 nM

Structure (SMILES): CC1=C(C)C(=O)C2=C(CC3(C)[C@H]4c5c(cc(C)c(C)c5C)C[C@@](C)(C(C)N3[C@H]2CNC(=O)C(C)C)N4C)C1=O (stereo partly drawn) [drawing 164]
- GI50 [8]: 59 nM
- GI50 [9]: 34 nM
- GI50 [10]: 62 nM
- GI50 [11]: 130 nM
- GI50 [12]: 370 nM
- GI50 [13]: 500 nM
- GI50 [14]: 180 nM
- GI50 [15]: 150 nM
- GI50 [16]: 63 nM
- GI50 [17]: 350 nM
- GI50 [18]: 530 nM
- GI50 [19]: 190 nM
- GI50 [20]: 390 nM
- GI50 [21]: 290 nM
- GI50 [22]: 310 nM
- GI50 [23]: 43 nM
- GI50 [24]: 400 nM
- GI50 [25]: 1600 nM
- GI50 [26]: 270 nM
- GI50 [27]: 35 nM
- GI50 [28]: 61 nM
- GI50 [29]: 540 nM
- GI50 [30]: 320 nM
- GI50 [31]: 430 nM
- GI50 [32]: 52 nM
- GI50 [33]: 170 nM
- GI50 [34]: 250 nM
- GI50 [35]: 300 nM
- GI50 [36]: 490 nM
